Data from publication PMC3914206.

How the values were obtained:
panel of 442 kinases [1] = molecular target: T1, panel of 442 kinases (Homo sapiens, UniProt P29317); format: binding; set-up: KINOMEscan: ABL1(F317L)-phosphorylated / KINOMEscan: ABL1(H396P)-nonphosphorylated / KINOMEscan: ABL1(H396P)-phosphorylated / KINOMEscan: ABL1(M351T)-phosphorylated / KINOMEscan: ABL1(T315I)-phosphorylated / KINOMEscan: ABL1-nonphosphorylated / KINOMEscan: ABL1-phosphorylated / KINOMEscan: ACVR2A / KINOMEscan: ACVR2B / KINOMEscan: ADCK3 / KINOMEscan: ADCK4 / KINOMEscan: AKT1 / KINOMEscan: AKT3 / KINOMEscan: ALK / KINOMEscan: ARK5 / KINOMEscan: AURKA / KINOMEscan: AURKC / KINOMEscan: BIKE / KINOMEscan: BMPR1A / KINOMEscan: BMPR1B / KINOMEscan: BMX / KINOMEscan: BRK / KINOMEscan: BRSK1 / KINOMEscan: BRSK2 / KINOMEscan: CAMK1 / KINOMEscan: CAMK1D / KINOMEscan: CAMK1G / KINOMEscan: CAMK2A / KINOMEscan: CAMK2B / KINOMEscan: AAK1 / KINOMEscan: CAMK2D / KINOMEscan: CAMK2G / KINOMEscan: ABL1(F317I)-nonphosphorylated / KINOMEscan: ABL1(F317I)-phosphorylated / KINOMEscan: ABL1(F317L)-nonphosphorylated: unit: % Ctrl; details: Compound Concentration 10 µM
T1 construct: purchased KINOMEscan
T1 sequence (P29317 24-976): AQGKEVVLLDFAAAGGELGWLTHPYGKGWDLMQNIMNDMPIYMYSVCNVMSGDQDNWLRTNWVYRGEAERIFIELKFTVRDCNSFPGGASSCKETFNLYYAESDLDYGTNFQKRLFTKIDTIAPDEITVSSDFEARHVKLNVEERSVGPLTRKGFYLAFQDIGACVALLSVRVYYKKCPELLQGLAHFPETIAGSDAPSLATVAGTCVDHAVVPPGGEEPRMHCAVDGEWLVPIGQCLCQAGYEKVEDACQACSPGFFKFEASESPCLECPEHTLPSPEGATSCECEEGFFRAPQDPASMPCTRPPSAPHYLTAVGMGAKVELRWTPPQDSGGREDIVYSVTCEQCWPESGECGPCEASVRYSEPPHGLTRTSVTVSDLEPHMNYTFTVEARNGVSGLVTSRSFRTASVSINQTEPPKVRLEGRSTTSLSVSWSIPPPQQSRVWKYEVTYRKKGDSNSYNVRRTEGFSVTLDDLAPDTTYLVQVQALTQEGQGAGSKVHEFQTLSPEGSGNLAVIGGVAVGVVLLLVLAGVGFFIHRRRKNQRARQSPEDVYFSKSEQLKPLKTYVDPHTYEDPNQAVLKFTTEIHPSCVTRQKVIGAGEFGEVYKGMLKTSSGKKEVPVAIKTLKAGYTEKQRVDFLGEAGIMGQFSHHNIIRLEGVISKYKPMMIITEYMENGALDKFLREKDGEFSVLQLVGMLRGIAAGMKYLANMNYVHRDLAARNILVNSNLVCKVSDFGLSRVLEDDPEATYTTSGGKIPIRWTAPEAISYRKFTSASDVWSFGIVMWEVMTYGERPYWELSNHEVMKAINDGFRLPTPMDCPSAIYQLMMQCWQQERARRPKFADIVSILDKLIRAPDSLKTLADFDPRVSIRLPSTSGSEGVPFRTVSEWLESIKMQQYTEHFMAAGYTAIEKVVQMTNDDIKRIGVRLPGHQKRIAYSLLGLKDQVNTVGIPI
Text: (§1) We assessed the selectivity of members of this scaffold using the KINOMEscan methodology across a near comprehensive panel of 442 kinases [[18,27]].

panel of 442 kinases [2] = molecular target: T2, panel of 442 kinases (Homo sapiens, UniProt O60285); format: binding; set-up: KINOMEscan: ABL1(F317L)-phosphorylated / KINOMEscan: ABL1(H396P)-nonphosphorylated / KINOMEscan: ABL1(H396P)-phosphorylated / KINOMEscan: ABL1(M351T)-phosphorylated / KINOMEscan: ABL1(T315I)-phosphorylated / KINOMEscan: ABL1-nonphosphorylated / KINOMEscan: ABL1-phosphorylated / KINOMEscan: ACVR2A / KINOMEscan: ACVR2B / KINOMEscan: ADCK3 / KINOMEscan: ADCK4 / KINOMEscan: AKT1 / KINOMEscan: AKT3 / KINOMEscan: ALK / KINOMEscan: ARK5 / KINOMEscan: AURKA / KINOMEscan: AURKC / KINOMEscan: BIKE / KINOMEscan: BMPR1A / KINOMEscan: BMPR1B / KINOMEscan: BMX / KINOMEscan: BRK / KINOMEscan: BRSK1 / KINOMEscan: BRSK2 / KINOMEscan: CAMK1 / KINOMEscan: CAMK1D / KINOMEscan: CAMK1G / KINOMEscan: CAMK2A / KINOMEscan: CAMK2B / KINOMEscan: AAK1 / KINOMEscan: CAMK2D / KINOMEscan: CAMK2G / KINOMEscan: ABL1(F317I)-nonphosphorylated / KINOMEscan: ABL1(F317I)-phosphorylated / KINOMEscan: ABL1(F317L)-nonphosphorylated: unit: % Ctrl; details: Compound Concentration 10 µM
T2 construct: purchased KINOMEscan
T2 sequence (O60285 1-661): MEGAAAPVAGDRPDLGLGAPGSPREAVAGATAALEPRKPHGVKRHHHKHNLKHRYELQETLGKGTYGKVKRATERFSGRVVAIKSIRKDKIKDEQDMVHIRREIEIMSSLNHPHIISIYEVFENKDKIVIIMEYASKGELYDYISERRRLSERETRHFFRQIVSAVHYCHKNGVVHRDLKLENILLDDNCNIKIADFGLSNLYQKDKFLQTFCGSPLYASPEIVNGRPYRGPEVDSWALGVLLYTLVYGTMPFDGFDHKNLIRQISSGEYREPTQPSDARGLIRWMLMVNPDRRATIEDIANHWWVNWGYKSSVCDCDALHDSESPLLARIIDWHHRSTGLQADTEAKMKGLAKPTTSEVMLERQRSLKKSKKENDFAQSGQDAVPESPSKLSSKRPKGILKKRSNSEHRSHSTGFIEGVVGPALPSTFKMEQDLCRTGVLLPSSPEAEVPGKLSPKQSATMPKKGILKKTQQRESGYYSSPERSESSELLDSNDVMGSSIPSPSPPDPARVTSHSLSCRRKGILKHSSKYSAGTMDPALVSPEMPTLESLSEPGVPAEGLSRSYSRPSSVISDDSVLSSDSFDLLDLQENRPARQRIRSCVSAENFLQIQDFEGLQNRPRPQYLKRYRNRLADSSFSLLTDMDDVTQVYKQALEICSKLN
Text: as §1

Row | SMILES | KINOMEscan: EPHA2 (panel of 442 kinases [1]) | KINOMEscan: ARK5 (panel of 442 kinases [2])
1 | COc1cc(C(=O)N2CCC(N3CCN(C)CC3)CC2)ccc1Nc1ncc2c(n1)N(C)c1ccccc1C(=O)N2C [15 (LRRK2-IN-1)] | 92 | 47
2 | CCOc1cc(C(=O)N2CCC(N3CCN(C)CC3)CC2)ccc1Nc1ncc2c(n1)N(C1CCCC1)c1ccccc1C(=O)N2C [Compound 26] | 100 | 100
3 | COc1cc(C(=O)N2CCC(N3CCN(C)CC3)CC2)ccc1Nc1ncc2c(n1)N1CCc3cccc(c31)C(=O)N2C [Compound 24] | 95 | 68
4 | COc1cc(C(=O)N2CCC(N3CCN(C)CC3)CC2)ccc1Nc1ncc2c(n1)N(C1CCCC1)c1ccccc1C(=O)N2C [Compound 25, 11-cyclopentyl-2-((2-methoxy-4-(4-(4-methylpiperazin-1-yl)piperidine-1-carbonyl)phenyl)amino)-5-methyl-5H-benzo[e]pyrimido[5,4-b][1,4]diazepin-6(11H)-one] | 100 | 90
